Experimental data taken from US20240360159A1, “NOVEL APPLICATIONS FOR OXAZABOROLIDINES AND NEW METHODS OF MANUFACTURE THEREOF” (Pathway Intermediates Limited, priority 2021, published 2024).
Marks after values point to notes of the source that are not given here.

Key:
[1] = system: broiler (Ross 308; mixed sex); experiment: Growth performance in broilers, feed additives vs ampicillin (Example 5); assay type: in vivo; conditions: for ADFI / ADG / BW / FCR / Mortality / Survivability: 0.1% in feed
Experimental: The pure oxazaborolidines prepared by the method of Example 1 was investigated to assess its potential as a growth promotor in poultry.
(§1) 1200 birds, 1-day old broiler (Ross 308; mixed sex) were treated over 32 days. 4 dietary groups were assessed with 6 replicates per diet; 50 birds per pen. The four Dietary groups consisted of (1) a control basal diet and (2) feed supplemented with a feed additive according to an embodiment of the present invention (0.1% 2-butyl-3,4 dimethyl-5-phenyl 1,3,2-oxazaborolidine-compound 2), (3) feed supplemented with a feed additive according to another embodiment of the present invention (0.1% 3,4-dimethyl-2-5-diphenyl-1,3,2-oxazaborolidine-compound 1) and (4) feed supplemented with the known antibiotic, ampicillin (0.1%).
(§2) The feeding programme followed a typical feeding program on a farm (3 phases: starter; grower; finisher) with the feed additives added to the basal diet with top dressing.
(§3) The following measurements were taken:
Growth Performance: Body weight (BW); Weight gain (Average Daily Gain—ADG); Feed intake (Average Daily Feed Intake—ADFI); FCR (food conversion ratio—feed input divided by feed output); Mortality Production Index.

cecal microbiome = experiment: Cecal bacterial microbiome α-diversity by 16S sequencing (Example 5); assay type: in vivo, broiler chickens; conditions: first week; genus level; compared to the basal control; p=0.0184 (Compound 1) and 0.0393 (Compound 2), two-way ANOVA; 0.1% in diet
Experimental: as §1
Microbiome: Cecal samples were harvested at three time points (week 1, week 3 and week 5). Six replicates were harvested per dietary group. Total DNA was purified and the bacterial microbiome was analysed by 16S sequencing.
Plots display the smallest and largest value as the whiskers, with the box comprising the 25th percentile, median and 75th percentile.

[2] = system: broiler (Ross 308; mixed sex); experiment: Growth performance in broilers, feed additive (Example 4); assay type: in vivo; conditions: 0.055% in feed
Experimental: The pure oxazaborolidine compound 5 (R)-(+)-2-Methyl-CBS-oxazaborolidine prepared according to Example 1 was investigated to assess its potential as a growth promoter in poultry.
240 birds, 1-day old broiler (Ross 308; mixed sex) were treated over 32 days. Two dietary groups were given six replicates per diet; […]. The two treatments consisted of (1) a control basal diet and (2) feed supplemented with a feed additive according to an embodiment of the present invention (0.055% (R)-(+)-2-Methyl-CBS-oxazaborolidine).
as §2, §3
Growth Performance: Body weight (BW); Weight gain (Average Daily Gain-ADG); Feed intake (Average Daily Feed Intake—ADFI); FCR (food conversion ratio-feed input divided by feed output).

[3] = 0.1% in diet, compared to the basal diet Control

| SMILES | decrease of overall FCR [1, 3] | ADFI ([1]; Grower (8-21 d)) | ADG ([1]; Grower (8-21 d)) | BW ([1]; Grower (8-21 d)) | FCR ([1]; Grower (8-21 d)) | Mortality ([1]; Grower (8-21 d)) | ADFI ([1]; Grower (22-32 d)) | ADG ([1]; Grower (22-32 d)) | BW ([1]; Grower (22-32 d)) | FCR ([1]; Grower (22-32 d)) | Mortality ([1]; Grower (22-32 d)) | ADFI ([1]; Overall (1-32 d)) | ADG ([1]; Overall (1-32 d)) | FCR ([1]; Overall (1-32 d)) | Survivability ([1]; Overall (1-32 d)) | ADFI ([1]; Starter (1-7 d)) | ADG ([1]; Starter (1-7 d)) | BW ([1]; Starter (1-7 d)) | FCR ([1]; Starter (1-7 d)) | Mortality ([1]; Starter (1-7 d)) | further results |
| --- | --- | --- | --- | --- | --- | --- | --- | --- | --- | --- | --- | --- | --- | --- | --- | --- | --- | --- | --- | --- | --- |
| C[C@H]1[C@@H](c2ccccc2)OB(c2ccccc2)N1C [Compound 1, 3,4-dimethyl-2-5-diphenyl-1,3,2-oxazaborolidine] | 0.59% | 72.7^C g | 51.5^C g | 892.8^C g | 1.46^ab | 0.37% | 133.5^C g | 70.6^C g | 1669.4^C g | 2.08 | 0.40% | 82.0^C g | 50.8^C g | 1.69^x | 97.9% | 19.5^B g | 18.2^C g | 172.4^C g | 1.07^A | 1.00% | α-diversity of the cecal microbiome (cecal microbiome): significantly increased |
| CCCCB1OC(c2ccccc2)C(C)N1C (stereo not drawn) [Compound 2, 2-butyl-3,4 dimethyl-5-phenyl 1,3,2-oxazaborolidine] | 1.76% | 80.7^B g | 58.6^B g | 1002.2^B g | 1.42^c | 1.12% | 144.0^B g | 76.1^B g | 1839.0^B g | 2.09 | 0.42% | 89.3^B g | 56.1^B g | 1.67^xy | 96.7% | 20.4^B g | 19.6^B g | 182.0^B g | 1.04^B | 1.33% | increase of overall ADFI [1, 3]: 4.6%; increase of overall ADG [1, 3]: 5.7%; increase in body weight gain ([1]; finisher phase, 0.1% in diet, compared to the basal diet Control): 5.7%; increase in body weight gain ([1]; grower phase, 0.1% in diet, compared to the basal diet Control): 8.7%; increase in body weight gain ([1]; starter phase, 0.1% in diet, compared to the basal diet Control): 4.5%; α-diversity of the cecal microbiome (cecal microbiome): significantly increased |
| CC1(C)S[C@@H]2[C@H](NC(=O)[C@H](N)c3ccccc3)C(=O)N2[C@H]1C(=O)O [ATB, ampicillin, reference compound] | – | 85.9^A g | 62.6^A g | 1074.6^A g | 1.42^bc | 1.53% | 155.9^A g | 83.0^A g | 1987.4^A g | 2.06 | 0.00% | 96.0^A g | 60.7^A g | 1.66^y | 95.4% | 21.9^A g | 22.0^A g | 199.1^A g | 0.99^C | 2.33% | – |
| CB1OC(c2ccccc2)(c2ccccc2)[C@H]2CCCN12 [Compound 5, (R)-(+)-2-Methyl-CBS-oxazaborolidine] | – | – | – | – | – | – | – | – | – | – | – | – | – | – | – | – | – | – | – | – | ADFI ([2]; Finisher (22-32 d)): 147.8 g; ADG ([2]; Finisher (22-32 d)): 90.1 g; BW ([2]; Finisher (22-32 d)): 2078.6 g; FCR ([2]; Finisher (22-32 d)): 1.64; ADFI ([2]; Grower (8-21 d)): 68.3 g; ADG ([2]; Grower (8-21 d)): 48.3 g; BW ([2]; Grower (8-21 d)): 816.9 g; FCR ([2]; Grower (8-21 d)): 1.41; ADFI ([2]; Overall (1-32 d)): 89.5 g; ADG ([2]; Overall (1-32 d)): 58.2 g; FCR ([2]; Overall (1-32 d)): 1.52; ADFI ([2]; Starter (1-7 d)): 15.5 g; ADG ([2]; Starter (1-7 d)): 14.2 g; BW ([2]; Starter (1-7 d)): 140.7 g; FCR ([2]; Starter (1-7 d)): 1.08 |
